In US6413971B1, “Fused bicyclic pyrimidine derivatives” (Pfizer Inc, priority 1996, dated 2002):
Counter-ions that a name gives are not always drawn.

melting point	Structure (SMILES)
212 to 229 °C	Cc1cc2c(N3CCc4ccc(Br)c(C)c43)ncnc2cn1.Cl
194 to 196 °C	Clc1ccc2c(c1)N(c1ncnc3cnccc13)CC2 [Example 5, 4-(6-Chloro-2,3dihydro-indol-1-yl)-pyrido[3,4-d]pyrimidine]
232 to 234 °C	Cc1cc2c(N3CCc4ccc(Cl)cc43)ncnc2cn1 [Example 16, 4-(6Chloro-2,3-dihydro-indol-1-yl)-6methyl-pyrido[3,4-d]pyrimidine]
240 to 241 °C	C#Cc1cccc(Nc2ncnc3c2ccn3CCOCCOC)c1 [Example 13, (3-Ethynyl-phenyl)-{7-[2-(2-methoxy-ethoxy)-ethyl]-7H-pyrrolo[2,3-d]pyrimidin4-yl}amine]
230 to 232 °C	C#Cc1cccc(Nc2ncnc3[nH]cc(-c4cccs4)c23)c1 [Example 27, (3-Ethynyl-phenyl)-(5-thiophen-2-yl-7H-pyrrolo[2,3-d]pyrimidin4-yl]-amine]
250 °C (dec.)	Oc1cc2ncnc(N3CCc4ccc(Cl)cc43)c2[nH]1 [Example 10, 4-(6Chloro-2,3dihydro-indol-1-yl)-5H-pyrrolo[3,2-d]pyrimidin-6-ol]
280 to 282 °C	c1cc2c(Nc3ccc4sccc4c3)ncnc2cn1 (as salt: hydrochloride) [Example 25, Benzo[b]thiophen-5-yl-pyrido[3,4-d]pyrimidin-4-yl-amine]
262 to 264 °C	Cc1cc2c(N3CCc4cc(F)c(Br)cc43)ncnc2cn1.Cl
233 to 235 °C	C#Cc1cccc(Nc2ncnc3cnccc23)c1 (as salt: hydrochloride) [Example 24, (3-Ethynyl-phenyl)-pyrido[3,4-d]pyrimidin-4-yl-amine]
232 to 244 °C	Cc1cc2c(N3CCc4c(Br)ccc(C)c43)ncnc2cn1.Cl
